Data from patent US20200216906A1, “METHODS AND COMPOSITIONS RELATING TO THE DIAGNOSIS AND TREATMENT OF CANCER” (PRESIDENT AND FELLOWS OF HARVARD COLLEGE, priority 2015, published 2020).
Counter-ions that a name gives are not always drawn.

How the values were obtained:
[1] = system: Panc02.13-parental xenografts; experiment: Mouse xenograft, Panc02.13-parental; assay type: in vivo; settings: alternate days for two weeks
Method: To assess the gemcitabine response to Hippo pathway inactivation in tumors a mouse xenograft model of pancreatic carcinoma cells and patient-derived xenograft (PDX) models from a variety of solid tumors including human cancers from non-small cell lung, esophagus, breast, mesothelium, ovary, colon, head and neck, sarcoma, and cholangiocarcinoma were used (FIG. 30). In mouse xenograft studies, two human pancreatic cancer cell lines (Miapac2 and Panc02.13) expressing GFP or YAPS6A were injected into athymic mice. Both parental or GFP expressing cells grew rapidly, producing palpable tumors in 5-10 days. When the tumors were ˜200 mm^3 (as measured using a caliper), mice were randomized into treatment and control groups. The […] received i.p. saline injections on alternate days for two weeks, and the latter received gemcitabine (20 mg/kg in Miapaca2-YAPS6A and 50 mg/Kg in Panc02.13-YAPS6A cohorts).
Tumorigenicity in Nude Mice. All in vivo experiments were performed using 6-week-old to 8-week-old athymic nude mice. Mice were maintained in laminar flow rooms with constant temperature and humidity. Miapaca2 or Panc02.13 cells were inoculated subcutaneously (s.c.) into each flank of the mice. […] Tumor volumes (V) were calculated using the formula: V=AB2/2 (A, axial diameter; B, rotational diameter). […]

[2] = cited from earlier work
[3] = system: patient-derived xenograft (PDX) models; experiment: Patient-derived xenograft (PDX) models, tumor growth inhibition; assay type: in vivo, mouse; settings: 20 PDX models, p=0.01
Text: An alternative to an endogenous mouse models for capturing effects of the tumor environment are patient-derived xenograft (PDX) models. […] At the cellular level, PDX models also preserve the intra-tumoral heterogeneity, as well as the molecular characteristics of the original cancer, including copy number variants, single-nucleotide polymorphisms, and gene expression profiles (Choi et al., 2014; DeRose et al., 2011). […] When patient-derived xenograft PDX models were used to assess whether YAP activation sensitizes solid tumors to gemcitabine significant effects were found. The studies were performed in the following manner: Tumor fragments (around 64 mm^3) were implanted into the flanks of recipient mice and tumor dimensions recorded with digital calipers. Once tumor implants reached a volume of approximately 200 mm3, dosing with gemcitabine (or vehicle control) began. At the completion of the study completion, the percent tumor growth inhibition (% TGI) was calculated for gemcitabine (G) and the vehicle control (C) using initial (i) and final (f) tumor measurements by the formula: % TGI=[1−(Gf−Gi)/(Cf−Ci)]x100.
Patient-derived xenograft (PDX) models. PDX models were established by Champions Oncology (Baltimore, Md.) as described previously (Khor et al., 2015). Drug response to 20 PDX models was obtained from Champions TumorGraft® Database (available on the world wide web at database.championsoncology.com/).
Immunohistochemistry. Human primary tumor tissue slides were obtained from Champions Oncology (Baltimore, Md.). Immunohistochemistry using anti YAP1 antibody (Abcam Cat # ab52771) was performed as previously described (Shi et al., 1999). For negative controls, primary antibody was omitted. The intensity of YAP staining was assessed by an independent pathologist using a four-grade scale: “0” is negative. “0.5” is borderline staining with no significance. “1” is weak staining. “1.5” is weak staining with foci of moderate staining. “2” is moderate staining. […] YAP scoring index was calculated based on staining intensity * % of positive target cells.

[4] = system: Panc02.13-YAPS6A xenografts; experiment: Mouse xenograft, Panc02.13-YAPS6A; assay type: in vivo; settings: 50 mg/Kg, alternate days for two weeks
Method: In mouse xenograft studies, two human pancreatic cancer cell lines (Miapac2 and Panc02.13) expressing GFP or YAPS6A were injected into athymic mice. […] When the tumors were ˜200 mm^3 (as measured using a caliper), mice were randomized into treatment and control groups. The former received i.p. saline injections on alternate days for two weeks, and the latter received gemcitabine (20 mg/kg in Miapaca2-YAPS6A and 50 mg/Kg in Panc02.13-YAPS6A cohorts).
Tumorigenicity in Nude Mice. All in vivo experiments were performed using 6-week-old to 8-week-old athymic nude mice. Mice were maintained in laminar flow rooms with constant temperature and humidity. […] Cells (2×10^6 in suspension) were injected on day 0, and tumor growth was followed every 2 to 3 days by tumor diameter measurements using vernier calipers. Tumor volumes (V) were calculated using the formula: V=AB2/2 (A, axial diameter; B, rotational diameter). When the outgrowths were • 200 mm^3, mice were divided at random into two groups (control and treated, n=3-8). The treated group received gemcitabine injection or saline control on alternate days (MWF) for 2 weeks.

[5] = system: cancer cell lines harboring Hippo pathway genetic alterations; experiment: 3D spheroid growth assay, cell lines with Hippo pathway alterations; assay type: cell-based; settings: cell lines from five diverse cancer types
Text: Genetic defects that inhibit the Hippo pathway can induce tumors in model organisms. Such mutations occur in a broad range of human carcinomas, including lung, mesothelioma, colorectal, ovarian and liver cancers (Harvey et al., 2013) (Table S3). Mutations in NF2 and LATS2 are found in ˜30% of mesotheliomas and mutations in STK11 are found in 18% of lung cancers (Table S3). Previous studies have shown that aberrations in LATS2 and NF2 inactivate the Hippo pathway and overcome crowding-mediated YAP inhibition (Murakami et al., 2011). Despite the oncogenic effect of Hippo pathway mutations, the above studies would predict that the same inactivating mutations in the Hippo pathway genes (NF2, LATS2, STK11) could have an important effect, which can be exploited in chemotherapy: they might be hypersensitive to gemcitabine even in highly crowded conditions and increase the effectiveness of treatment. […] Furthermore, previous studies have shown that mutations in STK11 (LKB1) in lung cancer cell lines confer sensitivity to gemcitabine while ectopic expression of STK11 causes resistance (Xia et al., 2014; Yang, 2014). STK11 has been identified as an upstream kinase that negatively regulates YAP activity (Mohseni et al., 2014). […] Genetic aberrations in the Hippo pathway can be predictive biomarkers for response to gemcitabine.

ABCG2 = target: T1, ABCG2 (Homo sapiens, UniProt Q9UNQ0); settings: Cusatis and Sparreboom, 2008; cited from earlier work
T1 sequence (Q9UNQ0 1-655): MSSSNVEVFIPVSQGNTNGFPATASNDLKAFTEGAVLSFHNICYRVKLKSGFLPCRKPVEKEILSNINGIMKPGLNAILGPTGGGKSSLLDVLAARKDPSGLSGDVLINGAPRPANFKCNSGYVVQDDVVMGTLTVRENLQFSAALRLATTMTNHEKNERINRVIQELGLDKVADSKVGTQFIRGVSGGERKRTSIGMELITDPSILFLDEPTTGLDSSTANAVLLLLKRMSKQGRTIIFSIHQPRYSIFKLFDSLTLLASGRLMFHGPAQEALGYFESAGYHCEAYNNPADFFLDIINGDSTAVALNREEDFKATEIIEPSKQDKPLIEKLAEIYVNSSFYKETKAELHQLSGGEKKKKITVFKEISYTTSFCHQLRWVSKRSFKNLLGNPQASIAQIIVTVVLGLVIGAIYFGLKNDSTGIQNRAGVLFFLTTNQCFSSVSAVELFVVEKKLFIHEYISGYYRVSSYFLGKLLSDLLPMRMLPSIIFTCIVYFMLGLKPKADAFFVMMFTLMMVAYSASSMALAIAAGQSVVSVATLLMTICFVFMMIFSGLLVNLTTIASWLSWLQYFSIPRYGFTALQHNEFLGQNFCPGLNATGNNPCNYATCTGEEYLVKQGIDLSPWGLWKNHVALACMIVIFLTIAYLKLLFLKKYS

## Nc1ccn([C@@H]2O[C@H](CO)[C@@H](O)C2(F)F)c(=O)n1 [Gemcitabine, Gemcitabine hydrochloride]
[1]
  Growth of xenografts: no affect
[2]; patients treated with gemcitabine
  Patients without objective response to treatment: > 75%
[2]; standard-of-care therapy, pancreatic cancer
  Median overall survival: six
[3]
  Difference in % TGI, high vs low YAP activity tumors: ~2 fold
[4]
  Tumor volume: significant regression
[5]
  EC50: < 1 µM
ABCG2
  Substrate of ABCG2: substrates of ABCG2
